Results taken from patent publication US20180064829A1, “FLUORESCENT BISPHOSPHONATE ANALOGS” (University of Southern California, priority 2015, published 2018).

Assays:
J774.2 macrophages = assay: J774.2 cell viability assay (AlamarBlue); format: cell-based, mouse; conditions: J774.2 macrophages, 10, 100 or 500 μM, 48 h; FIG. 5D-F
Method: To determine the effect of fluorescent BP analogues on cell viability, J774.2 mouse macrophages were plated at 2×10^5 cells/mL in 96-well plates and left to adhere overnight. Cells were then treated with 10, 100 or 500 μM of fluorescent analogues of RIS, dRIS, and ZOL, the respective native BP, or vehicle, for 48 h. At the end of the incubation period, AlamarBlue reagent was added to each well and incubation continued for a further 3 h. Fluorescence was detected on a plate reader, and expressed as percent of vehicle control. Results are shown as mean±SD of ≧2 independent experiments, performed at least in duplicate.

[1] = pH 7.0, 0.1M phosphate buffer; assumed the same as the corresponding fluorescent dye; cited from earlier work
[2] = Hydroxyapatite (HAP) column chromatography binding assay; conditions: pH 6.8, phosphate gradient 1 to 1000 mM; FIG. 3
Method: The fast performance liquid chromatography (FPLC) system consisted of a Waters 650E advanced protein purification system (Millipore Corp., Waters chromatography division, Milford, Mass.), a 600E system controller and a 484 tunable absorbance detector for UV absorbance assessment. Ceramic hydroxyapatite [HAP, […], Macro-Prep® Ceramic Hydroxyapatite Type II 20 μm 100 g, Bio-Rad Laboratories, Inc. Hercules, Calif.] was equilibrated with 1 mM phosphate buffer (pH 6.8) and packed in a 0.66 cm (diameter)×6.5 cm (length) glass column (Omnifit, Bio-chem Valve™ inc., Cambridge, U.K.), which was attached to the Waters 650E advanced protein purification system. Each sample was prepared in 1 mM potassium phosphate buffer, and 100 μL of 1 mM (0.1 μmol) sample was injected into the FPLC system. As a consequence, the compounds were absorbed and subsequently eluted at a flow rate of 2 ml/min by using a linear concentration gradient of phosphate from 1 to 1000 mM at pH 6.8. Fractions of each sample were collected in 80 tubes using an automated fraction collector (Gilson, France) and then used for subsequent ultraviolet (SPECTRAmax PLUS 384, Molecular Devices, CA) or fluorescence spectrometry detection (WALLAC VICTOR™, 1420 MULTILABEL COUNTER, Perkin Elmer, USA). […] The elution profile for each sample was determined in triplicate for statistical analysis (Prism, GraphPad Software, USA). […]

[3] = tested on: unprenylated Rap1A (uRap1A); assay: Prenylation assay: Western blot for unprenylated Rap1A in J774.2 macrophages; format: cell-based, mouse; conditions: 10 or 100 μM, 24 h, FIG. 5A-C
Method: To determine the effect of fluorescent BP probes on protein prenylation, J774.2 mouse macrophages were plated out at 2×10^5 cells/mL in 24-well plates and left to adhere overnight. Cells were then treated with 10 or 100 μM of fluorescent analogues of RIS, dRIS, and ZOL, the respective native BP, or vehicle, for 24 h. Cells were lysed in radioimmunoprecipitation buffer, and proteins were separated by sodium dodecyl sulfate polyacrylamide gel electrophoresis and transferred to polyvinyl difluoride membranes by western blotting. Membranes were then incubated with antibodies to the unprenylated form of Rap1A (uRap1A) and the housekeeping protein β-actin, which were detected by incubation with fluorescently-labeled secondary antibodies and scanning of membranes on a LI-COR Infrared Imager. Results shown are representative of 2 independent experiments. The ratio between abundance of unprenylated RaplA and β-actin is indicated for each sample below the blots in FIG. 5.

[4] = UV-VIS absorption and fluorescence emission spectra; format: physicochemical; conditions: 0.1M phosphate buffer (1x PBS for 7d5); ± 1 nm error
Method: All labeled samples were dissolved in water and diluted with 0.1 M phosphate buffer or 1×PBS (for 7d5). Assuming that the labeled bisphosphonates have the same extinction coefficient (E) as the carboxylic acid of the free fluorescent label, the final concentrations for all labeled products were calculated from UV-VIS absorption spectra at λ=493 nm (ε=73000 M^−1 cm^−1 at pH 7.2) for FAM conjugates (7a1-7a3, 7b1, 7c1, 7d1-7d2, 7e1-7e2, 7f1-7f2), λ=567.5 nm (ε=114850 M^−1cm^−1 at pH 7.5) for RhR-X conjugates (7a4, 7b2, 7c2), λ=580 nm (c=72000 M^−1cm^−1 at pH 8.0) for ROX conjugates (7a5, 7b3), λ=648 nm (ε=240000 M^−1cm^−1 at pH 7.2) for AF647 conjugates (7a6, 7b4, 7d3), λ=774 nm (ε=240000 M^−1cm^−1 at pH 7.4) for 800CW conjugates (7d4), λ=644 nm (ε=271000 M^−1cm^−1 at pH 7.4, 1×PBS) for Sulfo-Cy5 conjugates (7d5).
Emission spectra for FAM and RhR-X conjugates were recorded using an excitation wavelength of 490 nm or 520 nm, respectively. Emission spectra for AF647 conjugates and Sulfo-Cy5 conjugates were recorded using an excitation wavelength of 600 nm. Emission spectra of 5(6)-ROX conjugates were recorded using an excitation wavelength of 575 nm. Emission spectra of IRDye CW800 conjugate was recorded using an excitation wavelength of 750 nm. The set-up of excitation slit, emission slit, integration time and increment were determined to get optimal spectra for each compound respectively, depending on the sample concentration and spectrometer used.

Structure (SMILES)	viable cell number (J774.2 macrophages)	Extinction coefficient [1]	HAP binding affinity (retention time on HAP column, normalized to RIS) [2]	accumulation of unprenylated Rap1A (anti-prenylation activity) [3]	Maximum absorption wavelength (λmax (abs), nm) [4] [nm]	Maximum emission wavelength (λmax (em), nm) [4] [nm]
CC1(C)C(C=CC=CC=C2N(CCCS(=O)(=O)O)c3ccc(S(=O)(=O)O)cc3C2(C)CCCCCC(=O)NCC(O)C[n+]2cccc(CC(O)(P(=O)(O)O)P(=O)(O)O)c2)=[N+](CCCS(=O)(=O)O)c2ccc(S(=O)(=O)O)cc21 (centres unmarked) [AF647-RIS, 2-(5-(3-(6-((2-hydroxy-3-(3-(2-hydroxy-2,2-diphosphonoethyl)pyridin-1-ium-1-yl)propyl)amino)-6-oxohexyl)-3-methyl-5-sulfo-1-(3-sulfopropyl)indolin-2-ylidene)penta-1,3-dien-1-yl)-3,3-dimethyl-5-sulfo-1-(3-sulfopropyl)-3H-indol-1-ium]	modest decreases in viable cell number at high concentrations	240,000 (pH 7.0) M^−1cm^−1	largest relative decrease of HAP affinity compared to other fluorescent RIS conjugates, but still retains strong absolute binding affinity	did not show accumulation of unprenylated Rap1A	648	666
CC1(C)C(/C=C/C2=C(Oc3ccc(S(=O)(=O)O)cc3)C(=C/C=C3/N(CCCCS(=O)(=O)[O-])c4ccc(S(=O)(=O)[O-])cc4C3(C)C)/CCC2)=[N+](CCCCCC(=O)NCC(O)C[n+]2ccn(CC(O)(P(=O)(O)O)P(=O)(O)O)c2)c2ccc(S(=O)(=O)O)cc21 (centres unmarked) [Compound 800CW-ZOL, (E)-2-((E)-2-(3-((E)-2-(1-(6-((2-hydroxy-3-(1-(2-hydroxy-2,2-diphosphonoethyl)-1H-imidazol-3-ium-3-yl)propyl)amino)-6-oxohexyl)-3,3-dimethyl-5-sulfo-3H-indol-1-ium-2-yl)vinyl)-2-(4-sulfophenoxy)cyclohex-2-en-1-ylidene)ethylidene)-3,3-dimethyl-1-(4-sulfonatobutyl)indoline-5-sulfonate]	modest decreases in viable cell number at high concentrations	240,000 (pH 7.0) M^−1cm^−1		did not show accumulation of unprenylated Rap1A	774	789
